This is an account of results in patent US10214546B2, “Btk inhibitors” (MERCK SHARP & DOHME CORP., priority 2014, dated 2019).

Each structure is given as a SMILES string. Where two headings read alike, the source gives them in different places.

For assay [1], the system named is adenosine uptake into HeLa cells. Description: [3H]Adenosine uptake assay in HeLa cells. The format is cell-based. The following applies: [3H]adenosine accumulation in HeLa cells, compound range 10 μM to 0.032 nM, read-out: ADU inhibition IC50. On the procedure:
Compounds are also screened in an adenosine uptake functional cellular assay using the protocol described below:
[^3H]Adenosine Uptake Assay Methods
Adenosine uptake activity was determined by monitoring the accumulation of tritiated adenosine into HeLa cells (ATCC catalog # CCL-2) using a PMT-based radiometric detection instrument. In this assay, the potency (IC50) of each compound was determined from a ten point (1:3 serial dilution; final compound concentration range in assay from 10 µM to […]) titration curve using the following outlined procedure. To each well of a 96-well CytoStar-T scintillating microplate (Perkin Elmer Catalog # RPNQ0163), 25 000 HeLa cells in 100 µL of growth medium comprising: Minimum Essential Media (Life Technologies Catalog #11095-080)+10% (v/v) foetal bovine serum (FBS; Sigma Aldrich Catalog # F2442) was added. These cells were incubated overnight at 37° C. in a humidified atmosphere with 5% (v/v) CO2. After this time the growth medium was removed and replaced with 40 μL assay medium comprising: Hanks balanced salts solution (HBSS; Thermo Fisher Catalog # SH30268.01)+5% (v/v) FBS. Compound stock solutions in DMSO were diluted in assay medium to 2.5× final compound concentration maintaining a constant DMSO concentration of 0.25% (v/v). 40 μL of compound in assay medium was dispensed into individual wells of the Cytostar-T plates and the plates were incubated for 30 minutes under ambient laboratory conditions. Following this incubation, 20 μL of 500 nM [^3H] adenosine (American Radiolabeled Chemicals Inc. […] The amount of radiolabel accumulation was then determined using a Perkin Elmer Topcount NXT microplate reader. In brief, HeLa cells adhere to the bottom of the Cytostar-T plate, uptake of [^3H]adenosine into these cells brings the radiolabel into sufficient proximity to excite the scintillant in the base of the plates. These events are captured by single PMT, time-resolved coincidence counting. IC50 values were determined by 4 parameter robust fit of counts per second values vs. (Log10) compound concentrations.

In assay [2] the target is BTK enzyme (recombinant full-length BTK, hBTK) (Homo sapiens (Human), UniProt Q06187). As to the kind of experiment: BTK enzymatic activity LANCE TR-FRET assay. The format is biochemical. The following applies: 50 pM hBTK, 25 μM ATP, 2 μM biotin-A5-peptide; compound range 1 μM to 0.017 nM; read-out: BTK binding IC50. On the procedure:
Btk Enzyme Activity Assay Methods
BTK enzymatic activity was determined with the LANCE (Lanthanide Chelate Excite) TR-FRET (Time-resolved fluorescence resonance energy transfer) assay. […] Phosphorylation reactions were allowed to proceed for 120 minutes. […] After 60 minutes incubation with detection reagents, reaction plates were read on a PerkinElmer EnVision plate reader using standard TR-FRET protocol. […] IC50 values were determined by 4 parameter robust fit of TR-FRET ratio values vs. (Log10) compound concentrations.
A general note: TR-FRET usually uses a lanthanide donor and a delayed reading to cut background.

BTK enzyme (recombinant full-length BTK, hBTK), sequence (Q06187 whole entry): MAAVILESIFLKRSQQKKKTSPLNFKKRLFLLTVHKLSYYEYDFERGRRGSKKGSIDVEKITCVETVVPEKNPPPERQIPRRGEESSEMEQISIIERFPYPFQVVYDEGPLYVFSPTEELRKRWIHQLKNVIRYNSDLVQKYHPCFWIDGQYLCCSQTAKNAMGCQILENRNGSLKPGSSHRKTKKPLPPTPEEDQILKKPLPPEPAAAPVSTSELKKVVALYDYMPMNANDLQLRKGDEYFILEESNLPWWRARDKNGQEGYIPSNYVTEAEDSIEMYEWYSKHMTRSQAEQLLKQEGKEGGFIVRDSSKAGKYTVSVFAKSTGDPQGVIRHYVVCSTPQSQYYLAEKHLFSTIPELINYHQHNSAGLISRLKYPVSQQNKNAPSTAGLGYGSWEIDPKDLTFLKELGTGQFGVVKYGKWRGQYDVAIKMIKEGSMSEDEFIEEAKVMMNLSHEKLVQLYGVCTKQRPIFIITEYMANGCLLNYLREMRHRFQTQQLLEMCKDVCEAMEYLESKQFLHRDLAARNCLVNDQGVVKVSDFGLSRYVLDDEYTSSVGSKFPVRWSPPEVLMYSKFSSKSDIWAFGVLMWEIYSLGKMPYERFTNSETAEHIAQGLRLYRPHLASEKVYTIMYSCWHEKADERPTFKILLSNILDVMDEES

Regarding `CC(O)(c1ccc(-c2nc([C@@H]3CC[C@H]4CCC(=O)N4C3)n3ccnc(N)c23)cc1)c1cccnc1` (stereo partly drawn) [Example 18, (6R,8aS)-6-{8-amino-1-[4-(1-hydroxy-1-pyridin-3-ylethyl)phenyl]imidazo[1,5-a]pyrazin-3-yl}hexahydroindolizin-3(2H)-one], the IC50 (usually the midpoint of a concentration-inhibition curve) amounted to 10000 nM in assay [1] (Homo sapiens, HeLa) and 359 nM in assay [2].
The like results for `CC(O)(c1ccc(F)cc1)c1ccc(-c2nc([C@@H]3CC[C@H]4CCC(=O)N4C3)n3ccnc(N)c23)cc1` (stereo partly drawn) [Example 19, (6R,8aS)-6-(8-amino-1-{4-(1-(4-fluorophenyl)-1-hydroxyethyl]phenyl}imidazo[1,5-a]pyrazin-3-yl)hexahydroindolizin-3(2H)-one] were, in that order, 2360 nM and 170 nM.
The like results for `C[C@](O)(c1cccc(C(F)(F)F)c1)c1ccc(-c2nc([C@@H]3CC[C@H]4CCC(=O)N4C3)n3ccnc(N)c23)c(CO)c1` [Example 20, (6R,8aS)-6-(8-amino-1-(4-((R)-1-hydroxy-1-(3-(trifluoromethyl)phenyl)ethyl)-2-(hydroxymethyl)phenyl)imidazo[1,5-a]pyrazin-3-yl)hexahydroindolizin-3(2H)-one] were, in that order, 2570 nM and 230 nM.
The like results for `C[C@@](O)(c1cccc(C(F)(F)F)c1)c1ccc(-c2nc([C@@H]3CC[C@H]4CCC(=O)N4C3)n3ccnc(N)c23)c(CO)c1` [Example 21, (6R,8aS)-6-(8-amino-1-(4-((S)-1-hydroxy-1-(3-(trifluoromethyl)phenyl)ethyl)-2-(hydroxymethyl)phenyl)imidazo[1,5-a]pyrazin-3-yl)hexahydroindolizin-3(2H)-one] were, in that order, 7480 nM and 5.8 nM.
In the case of `CCOc1cc(C(C)(O)c2cccc(C(F)(F)F)c2)cc(F)c1-c1nc([C@@H]2CC[C@H]3CCC(=O)N3C2)n2ccnc(N)c12` (stereo partly drawn) [Example 22, (6R,8aS)-6-(8-amino-1-(2-ethoxy-6-fluoro-4-(1-hydroxy-1-(3-(trifluoromethyl)phenyl)ethyl)phenyl)imidazo[1,5-a]pyrazin-3-yl)hexahydroindolizin-3(2H)-one], the IC50 came out at 3820 nM in assay [1] (Homo sapiens, HeLa) and 1.7 nM in assay [2].
Turning to `CC(O)(c1ccccc1)c1ccc(-c2nc([C@@H]3CC[C@H]4CCC(=O)N4C3)n3ccnc(N)c23)c(F)c1` (stereo partly shown) [Example 24], the IC50 in assay [1] (Homo sapiens, HeLa) turned out to be 2490 nM; in assay [2] it was 5.2 nM.
The corresponding values for `Nc1nccn2c([C@@H]3CC[C@H]4CCC(=O)N4C3)nc(-c3ccc([C@](O)(c4ccccc4)C(F)(F)F)cc3)c12` [Example 25, (6R,8aS)-6-(8-amino-1-{4-[(1R)-2,2,2-trifluoro-1-hydroxy-1-phenylethyl]phenyl}imidazo[1,5-a]pyrazin-3-yl)hexahydroindolizin-3(2H)-one] are 3830 nM and 1.8 nM.
The like results for `Nc1nccn2c([C@@H]3CC[C@H]4CCC(=O)N4C3)nc(-c3ccc([C@@](O)(c4ccccc4)C(F)(F)F)cc3)c12` [Example 26, (6R,8aS)-6-(8-amino-1-{4-[(1S)-2,2,2-trifluoro-1-hydroxy-1-phenylethyl]phenyl}imidazo[1,5-a]pyrazin-3-yl)hexahydroindolizin-3(2H)-one] were, in that order, 2610 nM and 156 nM.
The corresponding values for `Nc1nccn2c([C@@H]3CC[C@H]4CCC(=O)N4C3)nc(-c3ccc(C(O)(c4cccc(C(F)(F)F)c4)C(F)(F)F)cc3)c12` (stereo partly drawn) [Example 27, (6R,8aS)-6-[8-amino-1-(4-{2,2,2-trifluoro-1-hydroxy-1-[3-(trifluoromethyl)phenyl]ethyl}phenyl)imidazo [1,5-a]pyrazin-3-yl]hexahydroindolizin-3(2H)-one] are 1240 nM and 9.8 nM.
Take `Nc1nccn2c([C@@H]3CC[C@H]4CCC(=O)N4C3)nc(-c3ccc(C(O)(c4cccc(F)c4)C(F)(F)F)cc3)c12` (stereo partly drawn) [Example 29, (6R,8aS)-6-(8-amino-1-{4-[2,2,2-trifluoro-1-(3-fluorophenyl)-1-hydroxyethyl]phenyl}imidazo[1,5-a]pyrazin-3-yl)hexahydroindolizin-3(2H)-one]: the IC50 was 1990 nM in assay [1] (Homo sapiens, HeLa) and 6.9 nM in assay [2].
The like results for `Nc1nccn2c([C@@H]3CC[C@H]4CCC(=O)N4C3)nc(-c3ccc(C(O)(c4ccccc4)C(F)(F)F)cc3F)c12` (stereo partly drawn) [Example 30, (6R,8aS)-6-{8-amino-1-[2-fluoro-4-(2,2,2-trifluoro-1-hydroxy-1-phenylethyl)phenyl)imidazo[1,5-a]pyrazin-3-yl}hexahydroindolizin-3(2H)-one] were, in that order, 1310 nM and 2.8 nM.
The like results for `CC(O)(c1ccc(-c2nc([C@@H]3CC[C@H]4CCC(=O)N4C3)n3ccnc(N)c23)cc1)c1ccccc1C(F)(F)F` (stereo partly drawn) [Example 31, (6R,8aS)-6-[8-amino-1-(4-{1-hydroxy-1-[2-(trifluoromethyl)phenyl]ethyl}phenyl)imidazo [1,5-a]pyrazin-3-yl]hexahydroindolizin-3(2H)-one] were, in that order, 4810 nM and 78.3 nM.
The like results for `Cn1nc(C(C)(O)c2ccc(-c3nc([C@@H]4CC[C@H]5CCC(=O)N5C4)n4ccnc(N)c34)cc2)cc1C(F)(F)F` (stereo partly drawn) [Example 35, (6R,8aS)-6-[8-amino-1-(4-{1-hydroxy-1-[1-methyl-5-(trifluoromethyl)-1H-pyrazol-3-yl]ethyl}phenyl)imidazo [1,5-a]pyrazin-3-yl]hexahydroindolizin-3(2H)-one] were, in that order, 2230 nM and 218 nM.
With `C[C@](O)(c1ccc(-c2nc([C@@H]3CC[C@H]4CCC(=O)N4C3)n3ccnc(N)c23)cc1)c1cc(C(F)(F)F)ccn1` [Example 36], the IC50 in assay [1] (Homo sapiens, HeLa) was 704 nM; in assay [2] it was 1000 nM.
With `C[C@@](O)(c1ccc(-c2nc([C@@H]3CC[C@H]4CCC(=O)N4C3)n3ccnc(N)c23)cc1)c1cc(C(F)(F)F)ccn1` [Example 37, (6R,8aS)-6-[8-amino-1-(4-{(1R)-1-hydroxy-1-[4-(trifluoromethyl)pyridin-2-yl]ethyl}phenyl)imidazo[1,5-a]pyrazin-3-yl]hexahydroindolizin-3(2H)-one], the IC50 in assay [1] (Homo sapiens, HeLa) is 3470 nM; in assay [2], 255 nM.
The like results for `C[C@@](O)(c1ccc(-c2nc([C@@H]3CC[C@H]4CCC(=O)N4C3)n3ccnc(N)c23)cc1)c1cccc(C2CC2)c1` [Example 38, (6R,8aS)-6-(8-amino-1-{4-[(1R)-1-(3-cyclopropylphenyl)-1-hydroxyethyl]phenyl}imidazo[1,5-a]pyrazin-3-yl)hexahydroindolizin-3(2H)-one] were, in that order, 1840 nM and 0.07 nM.
The like results for `CC(C)(C)c1cccc([C@@](C)(O)c2ccc(-c3nc([C@@H]4CC[C@H]5CCC(=O)N5C4)n4ccnc(N)c34)cc2)c1` [Example 39, (6R,8aS)-6-(8-amino-1-{4-[(1S)-1-(3-tert-butylphenyl)-1-hydroxyethyl]phenyl}imidazo[1,5-a]pyrazin-3-yl)hexahydroindolizin-3(2H)-one] were, in that order, 608 nM and 9.6 nM.
The like results for `CC(C)(C)c1cccc([C@](C)(O)c2ccc(-c3nc([C@@H]4CC[C@H]5CCC(=O)N5C4)n4ccnc(N)c34)cc2)c1` [Example 40, (6R,8aS)-6-(8-amino-1-{4-[(1R)-1-(3-tert-bulylphenyl)-1-hydroxyethyl]phenyl}imidazo[1,5-a]pyrazin-3-yl)hexahydroindolizin-3(2H)-one] were, in that order, 1760 nM and 0.27 nM.
As for `C[C@](O)(c1ccc(-c2nc([C@@H]3CC[C@H]4CCC(=O)N4C3)n3ccnc(N)c23)cc1)c1cccc(Cl)c1` [Example 41, (6R,8aS)-6-(8-amino-1-{4-[(1S)-1-(3-chlorophenyl)-1-hydroxyethyl]phenyl}imidazo[1,5-a]pyrazin-3-yl)hexahydroindolizin-3(2H)-one], the IC50 in assay [1] (Homo sapiens, HeLa) amounted to 588 nM; in assay [2], 116 nM.
As to `Cc1cc(-c2nc([C@@H]3CC[C@H]4CCC(=O)N4C3)n3ccnc(N)c23)ccc1C(C)(O)c1cccc(C(F)(F)F)c1` (stereo partly drawn) [Example 42, (6R,8aS)-6-[8-amino-1-(4-{1-hydroxy-1-[3-(trifluoromethyl)phenyl]ethyl}-3-methylphenyl)imidazo [1,5-a]pyrazin-3-yl]hexahydroindolizin-3(2H)-one], the IC50 in assay [1] came to 3230 nM; in assay [2] it was 1000 nM.
